Reference: publication PMC9788418, “Design, Synthesis and Biological Evaluation of Syn and Anti-like Double Warhead Quinolinones Bearing Dihydroxy Naphthalene Moiety as Epidermal Growth Factor Receptor Inhibitors with Potential Apoptotic Antiproliferative Action” (Molecules, 2022)
Like-named read-outs stand apart in the source and are kept apart here.

How the values were obtained:
[1] = system: MCF-10A (human mammary gland epithelial) cell line; test: Cell viability assay (MTT) on normal cell line; assay type: cell-based; settings: 50 µM, four days
Description: (§1) A cell viability test was performed using MCF-10A (human mammary gland epithelial) cell line to investigate the effect of 4a–e and 7a–e on normal cell lines. In this investigation, a concentration of 50 µM of the studied compound is employed for four days, after which cell viability is assessed.
(§2) 4.2. Biological evaluation
(§3) 4.2.1. Cytotoxic activity using MTT Assay and evaluation of IC50
(§4) MTT assay was carried out to study the effect of compounds on mammary epithelial cells (MCF-10A). The medium in which cells were propagated contained Dulbecco's modified Eagle's medium (DMEM)/ Ham's F-12 medium (1:1) supplemented with epidermal growth factor (20 ng/mL), hydrocortisone (500 ng/mL), insulin (10 μg/mL), 2 mM glutamine and 10% foetal calf serum. After every 2-3 days, the cells were passaged using trypsin ethylenediamine tetra acetic acid (EDTA). The cells were seeded at a density of 10^4 cells mL-1 in flat-bottomed culture plates containing 96 wells each. After 24 h, medium was removed from the plates and the compounds in (in 0.1% DMSO) were added (in 200 μL medium to yield a final concentration of 0.1% v/v) to the wells of plates. A single compound was designated with four wells followed by incubation of plates for 96h at 37°C. After incubation, medium was removed completely from the plates followed by addition of MTT (0.4 mg/mL in medium) to each well and subsequent incubation of plates for 3h. MTT (along with the medium) was removed and DMSO (150μL) was added to each well of the culture plates, followed by vortexing and subsequent measurement of absorbance (at 540 nm) using microplate reader. […]

[2] = system: HT-29 (colon cancer cell line); test: Antiproliferative assay; assay type: cell-based, human; settings: read-out: Antiproliferative Activity IC50 ± SEM, HT-29
Description: (§5) 4.2.1.2. Assay for antiproliferative effect
(§6) To explore the antiproliferative potential of compounds MTT assay was performed according to previously reported procedure using different cell lines to explore the antiproliferative potential of compounds propidium iodide fluorescence assay was performed using different cell lines. To calculate the total nuclear DNA, a fluorescent dye (propidium iodide, PI) is used which can attach to the DNA, thus offering a quick and precise technique. PI cannot pass through the cell membrane and its signal intensity can be considered as directly proportional to quantity of cellular DNA. Cells whose cell membranes are damaged or have changed permeability are counted as dead ones. The assay was performed by seeding the cells of different cell lines at a density of 3000-7500 cells/well (in 200µl […]
(§7) atmospheric conditions. The medium was removed; the compounds were added to the plates at 10 µM concentrations (in 0.1% DMSO) in triplicates, followed by incubation for 48 h. DMSO (0.1%) was used as control. After incubation, medium was removed followed by the addition of PI (25 µl, 50µg/mL in water/medium) to each well of the plates. At -80 °C, the plates were allowed to freeze for 24 h, followed by thawing at 25 °C. A fluorometer (Polar-Star BMG Tech) was used to record the readings at excitation and emission wavelengths of 530 and 620 nm for each well. The percentage cytotoxicity of compounds was calculated using the following formula:
(§8) Where ATC= Absorbance of treated cells and AC= Absorbance of control. […]
(§9) positive control in the assay.

[3] = system: A-549 (epithelial cancer cell line); test: Antiproliferative assay; assay type: cell-based, human; settings: read-out: Antiproliferative Activity IC50 ± SEM, A-549
Description: as §5, §6, §7, §8, §9

[4] = system: MCF-7 (breast cancer cell line); test: Antiproliferative assay; assay type: cell-based, human; settings: read-out: Antiproliferative Activity IC50 ± SEM, MCF-7
Description: as §5, §6, §7, §8, §9

[5] = system: Panc-1 (pancreas cancer cell line); test: Antiproliferative assay; assay type: cell-based, human; settings: read-out: Antiproliferative Activity IC50 ± SEM, Panc-1
Description: as §2
4.2.1. Cytotoxic activity using MTT Assay and evaluation of IC50 […]
cells were seeded at a density of 10^4 cells mL-1 in flat-bottomed culture plates containing 96 wells each. After 24 h, medium was removed from the plates and the compounds in (in 0.1% DMSO) were added (in 200 μL medium to yield a final concentration of 0.1% v/v) to the wells of plates. A single […]
incubation, medium was removed completely from the plates followed by addition of MTT (0.4 mg/mL in medium) to each well and subsequent incubation of plates for 3h. MTT (along with the medium) was removed and DMSO (150μL) was added to each well of the culture plates, followed by vortexing and subsequent measurement of absorbance (at 540 nm) using microplate reader. The data […]
as §5, §6, §7, §8, §9

[6] = system: four tested cancer cell lines (A-549, MCF-7, Panc-1, HT-29); test: Antiproliferative assay, average over the four cell lines; assay type: cell-based, human; settings: for GI50: mean of the four cancer cell lines
Description: The newly synthesized compounds were tested for antiproliferative activity against four different types of cancer cells: A-549 (epithelial cancer cell line), MCF-7 (breast cancer cell line), Panc-1 (pancreas cancer cell line), and HT-29 (colon cancer cell line).
After 24 h, medium was removed from the plates and the compounds in (in 0.1% DMSO) were added (in 200 μL medium to yield a final concentration of 0.1% v/v) to the wells of plates. A single compound was designated with four wells followed by incubation of plates for 96h at 37°C. After incubation, medium was removed completely from the plates followed by addition of MTT (0.4 mg/mL in medium) to each well and subsequent incubation of plates for 3h. MTT (along with the medium) was removed and DMSO (150μL) was added to each well of the culture plates, followed by vortexing and subsequent measurement of absorbance (at 540 nm) using microplate reader. The data are shown as percentage inhibition of proliferation in comparison with controls containing 0.1% 4.2.1.2. Assay for antiproliferative effect
To explore the antiproliferative potential of compounds MTT assay was performed according to previously reported procedure using different cell lines to explore the antiproliferative potential of compounds propidium iodide fluorescence assay was performed using different cell lines. To calculate the total nuclear DNA, a fluorescent dye (propidium iodide, PI) is used which can attach to the DNA, thus offering a quick and precise technique. PI cannot pass through the cell membrane and its signal intensity can be considered as directly proportional to quantity of cellular DNA. Cells whose cell membranes are damaged or have changed permeability are counted as dead ones. The assay was performed by seeding the cells of different cell lines at a density of 3000-7500 cells/well (in 200µl medium) in culture plates followed by incubation for 24h at 37 °C in humidified 5% CO2/95% air atmospheric conditions. The medium was removed; the compounds were added to the plates at 10 µM concentrations (in 0.1% DMSO) in triplicates, followed by incubation for 48 h. DMSO (0.1%) was used as control. After incubation, medium was removed followed by the addition of PI (25 µl, 50µg/mL in water/medium) to each well of the plates. At -80 °C, the plates were allowed to freeze for 24 h, followed by thawing at 25 °C. A fluorometer (Polar-Star BMG Tech) was used to record the readings at excitation and emission wavelengths of 530 and 620 nm for each well. The percentage cytotoxicity of compounds was calculated using the following formula:
Where ATC= Absorbance of treated cells and AC= Absorbance of control. Erlotinib was used as positive control in the assay.

[7] = Cell viability assay (MTT) on normal cell line; assay type: cell-based, human; settings: human, four days
Description: as §1, §2, §3, §4

[8] = system: caspase-3; test: Caspase-3 activation assay; settings: A-549, vs control untreated cells
Description: (§10) record autophosphorylation level, EGFR kinase assay was carried out based on DELFIA/Time-
(§11) Resolved Fluorometry. The compounds were first dissolved in DMSO absolute, after dilution to
Each compound (10 µL) was incubated
(§12) with recombinant enzyme (10 µL, 5 ng for EGFR, 1:80 dilution in 100 mM HEPES) for 10 min at
(§13) 25 °C, after the addition of 5X buffer (10 µL, containing 2 mM MnCl2, 100 µM Na3VO4, 20 mM HEPES and 1 mM DTT) and ATP-MgCl2 (20 µL, containing 0.1 mM ATP and 50 mM MgCl2) and
(§14) incubation for 1h. The negative and positive controls were included in each plate by the incubation
(§15) of enzyme either with or without ATP-MgCl2. The liquid was removed after incubation and the plates
(§16) were washed thrice using wash buffer. Europium-tagged antiphosphotyrosine antibody (75 µL, 400
(§17) ng) was added to each well followed by incubation of 1h and then washing of the plates using buffer.
(§18) The enhancement solution was added to each well and the signal was recorded at excitation and
(§19) The autophosphorylation percentage inhibition by compounds was calculated using the following equation:

[9] = biological target: T1, EGFR (Homo sapiens, UniProt P00533); test: EGFR inhibitory assay (EGFR-TK, DELFIA/time-resolved fluorometry)
Description: EGFR-TK assay was performed to evaluate the inhibitory potency of novel compounds against
EGFR. Baculoviral expression vectors including pBlueBacHis2B and pFASTBacHTc were used
5ʹ upstream to the EGFR sequence comprised a sequence that encoded (His)6. Sf-9 cells were infected for 72h for protein expression. The pellets of Sf-9 cells were solubilized in a buffer containing sodium vanadate (100 µM), aprotinin (10 µg/mL), triton (1%), HEPES buffer (50mM), ammonium molybdate (10 µM), benzamidine HCl (16 µg/mL), NaCl (10 mM), leupeptin (10 µg/mL) and pepstatin (10 µg/mL) at 0°C for 20 min at pH 7.4, followed by centrifugation for 20 min.
To eliminate the non-specifically bound material, a Ni-NTA super flow packed column was used to pass through and wash the crude extract supernatant first with 10 mM and then with 100 mM imidazole. Histidine-linked proteins were first eluted with 250 and then with 500 mM imidazole after (1 picture or pasted object on this page, not shown here)
dialysis against NaCl (50 mM), HEPES (20 mM), glycerol (10%) and 1 µg/mL each of aprotinin, leupeptin and pepstatin for 120 min. The purification was performed either at 4 °C or on ice. To
as §10, §11
Each compound (10 µL) was incubated
as §12, §13, §14, §15, §16, §17, §18, §19

[10] = system: Cytochrome-C; design: method as in PMID 35195309; settings: human Panc-1 cancer cells; cited from earlier work
[11] = system: Bax; design: method as in PMID 35195309; settings: vs normal untreated cells; cited from earlier work
[12] = system: caspase-3; design: method as in PMID 35195309; settings: human Panc-1 cancer cells; cited from earlier work
[13] = system: caspase-9; design: method as in PMID 35195309; settings: human Panc-1 cancer cells; cited from earlier work
[14] = system: four cancer cell lines; design: method as in PMID 35195309; settings: cited from earlier work
[15] = biological target: T1, EGFR; design: 645–1186); His6 (N); made in house; host or cells: Sf-9 insect cells (baculovirus; pBlueBacHis2B and pFASTBacHTc vectors; settings: cited from earlier work
[16] = system: Bcl-2; design: method as in PMID 35195309; settings: cited from earlier work
[17] = MCF-10A mammary gland epithelial cells

T1 sequence (P00533 669-1210): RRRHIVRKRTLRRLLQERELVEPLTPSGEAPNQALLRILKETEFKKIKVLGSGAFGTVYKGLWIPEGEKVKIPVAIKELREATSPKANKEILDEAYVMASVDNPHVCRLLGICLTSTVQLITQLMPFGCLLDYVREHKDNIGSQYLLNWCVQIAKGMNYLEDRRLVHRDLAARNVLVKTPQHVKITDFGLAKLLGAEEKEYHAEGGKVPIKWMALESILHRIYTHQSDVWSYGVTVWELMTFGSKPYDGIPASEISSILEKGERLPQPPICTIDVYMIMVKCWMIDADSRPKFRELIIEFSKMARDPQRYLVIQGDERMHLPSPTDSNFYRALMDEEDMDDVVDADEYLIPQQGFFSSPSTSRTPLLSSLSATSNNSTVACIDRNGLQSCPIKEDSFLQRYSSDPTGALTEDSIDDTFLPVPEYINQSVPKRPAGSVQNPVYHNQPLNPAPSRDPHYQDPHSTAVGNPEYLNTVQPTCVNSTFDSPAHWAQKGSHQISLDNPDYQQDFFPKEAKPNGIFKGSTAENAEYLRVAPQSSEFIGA

Row | IC50 ([2]; Homo sapiens) [µM] | IC50 ([3]; Homo sapiens, A549) [µM] | IC50 ([4]; Homo sapiens, MCF7) [µM] | melting point [°C] | IC50 ([5]; Homo sapiens, PANC-1) [µM] | GI50 ([6]; Homo sapiens) [µM] | Compound | viability at 96 h, 50 µM [7, 17] [%] | other results
1 | 0.065 ± 0.006 | 0.057 ± 0.006 | 0.059 ± 0.006 | > 360 | 0.062 ± 0.006 |  | O=c1cc(-n2cc(COc3cccc4c(OCc5cn(-c6cc(=O)[nH]c7ccccc67)nn5)cccc34)nn2)c2ccccc2[nH]1 [Compound 7a, 4,4′-(((naphthalene-1,5-diylbis(oxy))bis(methylene))bis(1H-1,2,3-triazole-4,1-diyl))-bis-(quinolin-2(1H)-one)] | 89 | 
2 | 0.076 ± 0.007 | 0.07 ± 0.007 | 0.074 ± 0.007 | > 360 | 0.075 ± 0.007 | 0.074 | COc1ccc2[nH]c(=O)cc(-n3cc(COc4cccc5c(OCc6cn(-c7cc(=O)[nH]c8ccc(OC)cc78)nn6)cccc45)nn3)c2c1 [Compound 7c, 4,4′-(((naphthalene-1,5-diylbis(oxy))bis(methylene))bis(1H-1,2,3-triazole-4,1-diyl))-bis-(6-methoxyquinolin-2(1H)-one)] | 91 | 
3 | 0.057 ± 0.005 | 0.05 ± 0.005 | 0.053 ± 0.005 |  | 0.057 ± 0.005 | 0.054 | Cc1cccc2c(-n3cc(COc4cccc5c(OCc6cn(-c7cc(=O)[nH]c8c(C)cccc78)nn6)cccc45)nn3)cc(=O)[nH]c12 [Compound 7d, 4,4′-(((naphthalene-1,5-diylbis(oxy))bis(methylene))bis(1H-1,2,3-triazole-4,1-diyl))-bis-(8-methylquinolin-2(1H)-one)] |  | viability at 96 h, 50 µM ([7]; MCF-10A mammary gland epithelial cells (normal cell line)): 89%; Caspase-3 Fold Change [8]: 7.40; IC50 [9]: 0.097 ± 0.009 µM; fold less effective than erlotinib (EGFR IC50) ([9]; relative to erlotinib): roughly 1.3 fold

The next lines start with the compound.

Row | Compound | IC50 ([2]; Homo sapiens) [µM] | IC50 ([3]; Homo sapiens, A549) [µM] | IC50 ([4]; Homo sapiens, MCF7) [µM] | melting point [°C] | IC50 ([5]; Homo sapiens, PANC-1) [µM] | GI50 ([6]; Homo sapiens) [µM] | viability at 96 h, 50 µM [7, 17] [%] | other results
4 | 4,4′-(((naphthalene-1,8-diylbis(oxy))bis(methylene))bis(1H-1,2,3-triazole-4,1-diyl))-bis-(8-methylquinolin-2(1H)-one) [Compound 4d] |  |  |  |  |  |  |  | Cell Viability % [1]: 86%; IC50 [2]: 0.097 ± 0.009 µM; IC50 ([3]; A-549): 0.09 ± 0.009 µM; IC50 ([4]; MCF-7): 0.095 ± 0.009 µM; IC50 ([5]; Panc-1): 0.098 ± 0.009 µM; GI50 [6]: 0.095 µM; times less potent than 4b (GI50) ([6]; relative to 4b): at least twofold less potent
5 | COc1ccc2[nH]c(=O)cc(-n3cc(COc4cccc5cccc(OCc6cn(-c7cc(=O)[nH]c8ccc(OC)cc78)nn6)c45)nn3)c2c1 [Compound 4c, 4,4′-(((naphthalene-1,8-diylbis(oxy))bis(methylene))bis(1H-1,2,3-triazole-4,1-diyl))-bis-(6-methoxyquinolin-2(1H)-one)] | 0.081 ± 0.008 | 0.078 ± 0.008 | 0.079 ± 0.008 | > 360 | 0.083 ± 0.008 | 0.08 | 87 | 
6 | O=C(CSc1nnc(Cn2cc(-c3ccccc3)nn2)o1)Nc1nc(-c2ccc(Cl)cc2)cs1 [Compound VI] |  |  |  |  |  |  |  | Cytochrome-C level increase [10]: 13 times; Bax level elevation [11]: 40 fold; Caspase-3 level increase [12]: 7.80 times; Caspase-9 level increase [13]: 19.30 times; GI50 [14]: 0.23 µM; IC50 [15]: 0.11 µM; Bcl-2 level decrease [16]: 6.3 fold
7 | CN(C)c1ccc(/C=C/C(=O)c2ccc3ncc(C(N)=O)c(Nc4ccc(Cl)cc4)c3c2)cc1 [III] |  |  |  |  |  |  |  | IC50 [15]: 5.2 µM
